Earlier results on two molecules are cited in US9629846B1, “Nutritional supplements for women desiring to become pregnant, and pregnant and nursing women” (Argent Development Group, LLC, priority 2013, dated 2017).

For series [1] the following is noted: nutrient depletion.
The conditions of series [2]: dietary iron, heme versus non-heme.

On to `CN(C)C(=N)N=C(N)N` [metformin], for which the “effect on folate, magnesium and Vitamin B12 levels” value in series [1] was “reduce folate, magnesium, and Vitamin B12 levels”.

As for Heme iron, the absorption in series [2] is 30%.
